Reference: patent US10519152B2, “Compounds and their use in treating cancer” (AstraZeneca AB, priority 2017, dated 2019)
Counter-ions that a name gives are not always drawn.

Biological target: T1, Estrogen Receptor (ERα) in MCF-7 human ductal carcinoma breast cell line (Homo sapiens, UniProt P03372)
T1 construct: endogenous in cells; host or cells: MCF-7
T1 sequence (P03372 1-595): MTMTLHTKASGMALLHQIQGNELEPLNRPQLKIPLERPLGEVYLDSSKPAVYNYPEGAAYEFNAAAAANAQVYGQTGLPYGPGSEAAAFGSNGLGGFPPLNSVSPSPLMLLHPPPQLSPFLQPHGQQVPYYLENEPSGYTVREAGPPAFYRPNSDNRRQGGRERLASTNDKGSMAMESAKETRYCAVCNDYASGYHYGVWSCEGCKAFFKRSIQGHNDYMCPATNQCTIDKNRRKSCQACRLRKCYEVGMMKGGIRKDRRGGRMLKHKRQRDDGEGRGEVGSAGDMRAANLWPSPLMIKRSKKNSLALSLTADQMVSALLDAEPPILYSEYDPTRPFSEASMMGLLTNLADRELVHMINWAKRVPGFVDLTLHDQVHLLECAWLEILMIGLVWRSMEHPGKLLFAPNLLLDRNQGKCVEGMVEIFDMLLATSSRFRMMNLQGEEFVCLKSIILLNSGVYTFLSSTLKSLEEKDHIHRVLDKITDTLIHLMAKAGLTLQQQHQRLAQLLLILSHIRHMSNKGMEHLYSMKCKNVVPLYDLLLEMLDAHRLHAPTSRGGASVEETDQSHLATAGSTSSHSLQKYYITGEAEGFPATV
Assay: MCF-7 ER degradation assay (cell based immuno-fluorescence)
Settings: MCF-7 cells; for ER degradation ≥ 90% at 0.3 μM: ER degradation by fulvestrant at 0.3 μM is defined as 100%; for DC50: 18-22 hours incubation, 50% reduction of ERα expression, single experiment or average of two or more, read-out: MCF-7 ER degradation IC50
Procedure, shortened: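 MCF-7 human ductal carcinoma breast cells were seeded at 3.75×10^4 cells per mL (40 μL per well) in 384 well plates with phenol red free DMEM containing 2 mM L-Glutamine and 5% (v/v) Charcoal/Dextran treated foetal calf serum. After overnight culture, compounds were acoustically dispensed, incubated 18-22 hours, then cells were formaldehyde-fixed and immunostained for ERα.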

SMILES | ER degradation ≥ 90% at 0.3 μM | DC50
Cc1ncsc1-c1ccc(CNC(=O)[C@@H]2C[C@@H](O)CN2C(=O)[C@@H](NC(=O)COCCCCCOc2cc(F)c([C@@H]3c4[nH]c5ccccc5c4C[C@@H](C)N3CC3(F)CC3)c(F)c2)C(C)(C)C)cc1 [Example 79, (2S,4R)-1-((S)-2-(2-((5-(3,5-difluoro-4-((1R,3R)-2-((1-fluorocyclopropyl)methyl)-3-methyl-2,3,4,9-tetrahydro-1H-pyrido[3,4-b]indol-1-yl)phenoxy)pentyl)oxy)acetamido)-3,3-dimethylbutanoyl)-4-hydroxy-N-(4-(4-methylthiazol-5-yl)benzyl)pyrrolidine-2-carboxamide] | • | 2000 pM
Cc1ncsc1-c1ccc(CNC(=O)[C@@H]2C[C@@H](O)CN2C(=O)[C@@H](NC(=O)COCCCCCOc2cc(F)c([C@@H]3c4[nH]c5ccccc5c4C[C@@H](C)N3CC(F)(F)F)c(F)c2)C(C)(C)C)cc1 [Example 96] | • | 1300 pM
CC[C@H](C)[C@H](N)C(=O)O[C@@H]1C[C@@H](C(=O)NCc2ccc(-c3scnc3C)cc2)N(C(=O)[C@@H](NC(=O)COCCOCCOCCOc2cc(F)c([C@@H]3c4[nH]c5ccccc5c4C[C@@H](C)N3CC(C)(C)F)c(F)c2)C(C)(C)C)C1 [Example 99, (3R,5S)-1-((S)-2-(2-(2-(2-(2-(3,5-Difluoro-4-((1R,3R)-2-(2-fluoro-2-methylpropyl)-3-methyl-2,3,4,9-tetrahydro-1H-pyrido[3,4-b]indol-1-yl)phenoxy)ethoxy)ethoxy)ethoxy)acetamido)-3,3-dimethylbutanoyl)-5-((4-(4-methylthiazol-5-yl)benzyl)carbamoyl)pyrrolidin-3-yl L-isoleucinate Formate] | • | 1600 pM
Cc1ncsc1-c1ccc([C@H](C)NC(=O)[C@@H]2C[C@@H](O)CN2C(=O)[C@@H](NC(=O)COCCOCCOCCOc2cc(F)c([C@@H]3c4[nH]c5ccccc5c4C[C@@H](C)N3CC(C)(C)F)c(F)c2)C(C)(C)C)cc1 [Example 3, (2S,4R)-1-((S)-2-(tert-Butyl)-14-(3,5-difluoro-4-((1R,3R)-2-(2-fluoro-2-methylpropyl)-3-methyl-2,3,4,9-tetrahydro-1H-pyrido[3,4-b]indol-1-yl)phenoxy)-4-oxo-6,9,12-trioxa-3-azatetradecanoyl)-4-hydroxy-N—((S)-1-(4-(4-methylthiazol-5-yl)phenyl)ethyl)pyrrolidine-2-carboxamide] | •• | 300 pM
Cc1ncsc1-c1ccc(CNC(=O)[C@@H]2C[C@@H](O)CN2C(=O)[C@@H](NC(=O)COCCOCCOCCOc2cc(F)c([C@@H]3c4[nH]c5ccccc5c4C[C@@H](C)N3CC3(F)CC3)c(F)c2)C(C)(C)C)cc1 [Example 77, (2S,4R)-1-((S)-2-(tert-Butyl)-14-(3,5-difluoro-4-((1R,3R)-2-((1-fluorocyclopropyl)methyl)-3-methyl-2,3,4,9-tetrahydro-1H-pyrido[3,4-b]indol-1-yl)phenoxy)-4-oxo-6,9,12-trioxa-3-azatetradecanoyl)-4-hydroxy-N-(4-(4-methylthiazol-5-yl)benzyl)pyrrolidine-2-carboxamide] | •• | 1000 pM
Cc1ncsc1-c1ccc(CNC(=O)[C@@H]2C[C@@H](O)CN2C(=O)[C@@H](NC(=O)COCc2cccc(CCCOc3cc(F)c([C@@H]4c5[nH]c6ccccc6c5C[C@@H](C)N4CC(C)(C)F)c(F)c3)c2)C(C)(C)C)cc1 [Example 74, (2S,4R)-1-((S)-2-(2-((3-(3-(3,5-Difluoro-4-((1R,3R)-2-(2-fluoro-2-methylpropyl)-3-methyl-2,3,4,9-tetrahydro-1H-pyrido[3,4-b]indol-1-yl)phenoxy)propyl)benzyl)oxy)acetamido)-3,3-dimethylbutanoyl)-4-hydroxy-N-(4-(4-methylthiazol-5-yl)benzyl)pyrrolidine-2-carboxamide] | •• | 14300 pM
Cc1ncsc1-c1ccc(CNC(=O)[C@@H]2C[C@@H](O)CN2C(=O)[C@@H](NC(=O)COCCOCCNC(=O)/C=C/c2cc(F)c([C@@H]3c4[nH]c5ccccc5c4C[C@@H](C)N3CC(C)(C)F)c(F)c2)C(C)(C)C)cc1 [Example 58, (2S,4R)-1-((S,E)-2-(tert-butyl)-15-(3,5-difluoro-4-((1R,3R)-2-(2-fluoro-2-methylpropyl)-3-methyl-2,3,4,9-tetrahydro-1H-pyrido[3,4-b]indol-1-yl)phenyl)-4,13-dioxo-6,9-dioxa-3,124-diazapentadec-4-enoyl)-4-hydroxy-N-(4-(4-methylthiazol-5-yl)benzyl)pyrrolidine-2-carboxamide, Trifluoroacetic Acid] | • | 400 pM
Cc1ncsc1-c1ccc(CNC(=O)[C@@H]2C[C@@H](O)CN2C(=O)[C@@H](NC(=O)COCCOCCOCCNC(=O)/C=C/c2cc(F)c([C@@H]3c4[nH]c5ccccc5c4C[C@@H](C)N3CC(C)(C)F)c(F)c2)C(C)(C)C)cc1 [Example 63, (2S,4R)-1-((S,E)-2-(tert-butyl)-18-(3,5-difluoro-4-((1R,3R)-2-(2-fluoro-2-methylpropyl)-3-methyl-2,3,4,9-tetrahydro-1H-pyrido[3,4-b]indol-1-yl)phenyl)-4,16-dioxo-6,9,12-trioxa-3,15-diazaoctadec-17-enoyl)-4-hydroxy-N-(4-(4-methylthiazol-5-yl)benzyl)pyrrolidine-2-carboxamide, Trifluoroacetic Acid] | •• | 600 pM
Cc1ncsc1-c1ccc(CNC(=O)[C@@H]2C[C@@H](O)CN2C(=O)[C@@H](NC(=O)COCCNC(=O)/C=C/c2cc(F)c([C@@H]3c4[nH]c5ccccc5c4C[C@@H](C)N3CC(C)(C)F)c(F)c2)C(C)(C)C)cc1 [Example 62, (2S,4R)-1-((S)-2-(2-(2-((E)-3-(3,5-difluoro-4-((1R,3R)-2-(2-fluoro-2-methylpropyl)-3-methyl-2,3,4,9-tetrahydro-1H-pyrido[3,4-b]indol-1-yl)phenyl)acrylamido)ethoxy)acetamido)-3,3-dimethylbutanoyl)-4-hydroxy-N-(4-(4-methylthiazol-5-yl)benzyl)pyrrolidine-2-carboxamide, Trifluoroacetic Acid] | • | 600 pM
Cc1ncsc1-c1ccc(CNC(=O)[C@@H]2C[C@@H](OC(=O)[C@H](C)NC(=O)[C@@H](N)C(C)C)CN2C(=O)[C@@H](NC(=O)COCCOCCOCCOc2cc(F)c([C@@H]3c4[nH]c5ccccc5c4C[C@@H](C)N3CC(C)(C)F)c(F)c2)C(C)(C)C)cc1 [Example 100, (3R,5S)-1-((S)-2-(2-(2-(2-(2-(3,5-Difluoro-4-((1R,3R)-2-(2-fluoro-2-methylpropyl)-3-methyl-2,3,4,9-tetrahydro-1H-pyrido[3,4-b]indol-1-yl)phenoxy)ethoxy)ethoxy)ethoxy)acetamido)-3,3-dimethylbutanoyl)-5-((4-(4-methylthiazol-5-yl)benzyl)carbamoyl)pyrrolidin-3-yl L-valyl-L-alaninate Formate] | •• | 400 pM
Cc1ncsc1-c1ccc(CNC(=O)[C@@H]2C[C@@H](O)CN2C(=O)[C@@H](NC(=O)c2cnn(CCOCCNC(=O)/C=C/c3cc(F)c([C@@H]4c5[nH]c6ccccc6c5C[C@@H](C)N4CC(C)(C)F)c(F)c3)c2)C(C)(C)C)cc1 [Example 64, 1-(2-(2-((E)-3-(3,5-difluoro-4-((1R,3R)-2-(2-fluoro-2-methylpropyl)-3-methyl-2,3,4,9-tetrahydro-1H-pyrido[3,4-b]indol-1-yl)phenyl)acrylamido)ethoxy)ethyl)-N—((S)-1-((2S,4R)-4-hydroxy-2-((4-(4-methylthiazol-5-yl)benzyl)carbamoyl)pyrrolidin-5-yl)-3,3-dimethyl-1-oxobutan-2-yl)-1H-pyrazole-4-carboxamide, Trifluoroacetic Acid] | • | 500 pM
